What was measured:
Type in all cases: cell-based
TC28 cells [1] = assay: GAG release from TC28 chondrocytes in polyHEME plates (DMB dye binding assay); details: for % Decrease in GAG Release, IL-1b / % Decrease in GAG Release, NOC-12 / % Decrease in GAG Release, SIN-1: TC28 cells in polyHEME plates, 1 μM compound; for % Decrease in GAG Release, IL-1b: trigger IL-1 10 ng/ml; for % Decrease in GAG Release, NOC-12: trigger NOC-12 25 μM; for % Decrease in GAG Release, SIN-1: trigger SIN-1 10 μM; for EC50: approximate, prevention of GAG release, polyHEME plates, 1 h pretreatment, 72 h
Method: Immortalized TC28 (a.k.a. “[…]”) juvenile rib chondrocytes were provided by Dr. Mary Goldring (Harvard Medical School, Boston, Mass.). The TC28 cells were maintained in monolayer culture in DMEM/Ham's F12 (1:1) and supplemented with 10% FCS, 1% L-glutamine, 100 units/ml Penicillin and […] Streptomycin (Omega Scientific, Tarzana, Ca) and cultured at 37° C. with 5% CO2. Additionally, to further study chondrocytic cells in a more physiologic nonadherent state, in some experiments, TC28 cells were transferred to 6 well plates that had been previously coated for 18 hours at 22° C. with 10% (v/v) in 95% ethanol solution of the cell adhesion inhibitor poly 2-hydroxyethyl methacrylate (polyHEME), followed by two washes in PBS. Complete DMEM/Ham's F12 medium was then added to the wells and the cells studied for up to 72 hours in culture (Folkman J. and Moscona A: Role of cell shape in growth control, Nature 273:345-349, 1978; Reginato A, Iozzo R, Jimenez S: Formation of Nodular Structures Resembling Mature Articular Cartilage in Long-Term Primary Cultures of Human Fetal Epiphyseal Chondrocytes on a Hydrogel Substrate, Arthritis Rheum 37: 1338-1349, 1994). Type II collagen and aggrecan expression were confirmed using RT-PCR, which verified maintenance of chondrocyte phenotype. The chondrocyte protective effects of representative compounds were screened in vitro. The agonists included a donor of nitric oxide (NOC-12), a donor of peroxynitrite (SIN-1), and human recombinant IL-1beta. […] Cytotoxicity was studied using standard LDH release assay, and chondrocyte intracellular ATP was measured by standard luciferase assay. The enhanced release from chondrocytes of glycosaminoglycans (GAG) is a central feature of osteoarthritic chondrocytes, and is known to be stimulated potently by IL-1, which, like NO and peroxynitrite is a major pathogenic factor in osteoarthritis. […] The digestion of the interfering proteins accomplished in this manner allowed the GAG release to be more readily detectable, and the GAG release was quantified by the standard dimethylene blue (DMB) dye binding colorimetric assay. In brief, the cell extract digested from above was combined with 46 μM DMB, 40 mM glycine and 40 mM NaCl (pH 3.0) and immediately read at 525 nm and compared again at a standard curve generated with samples of 1-50 μg/ml chondroitin sulfate (Farndale R, Buttle D, Barrett A: Improved quantitation and discrimination of sulphated glycosaminoglycans by us of dimethylmethylene blue, Biochimica et Biophysica Acta 883: 173-177, 1986; SztrolovicsR, White R, Poole R, Mort J, Roughley P: Resistance of small leucine-rich repeat proteoglycans to proteolytic degradation during interleukin-1 stimulated cartilage catabolism, Biochem J. 339: 571-577, 1999). Collagen production was measured by following ^3H proline incorporation as described in Johnson et al., Arthritis Rheum. 43:11560-70, 2000. […] In these experiments, TC28 cells in polyHEME coated plates were pre-treated for 1 hr followed by exposure to trigger for 72 hrs in the present of Compound (1).

TC28 cells [2] = assay: Collagen synthesis (3H proline incorporation); details: approximate, prevention of inhibition of collagen synthesis, polyHEME plates, 1 h pretreatment, 72 h
Method: Collagen production was measured by following ^3H proline incorporation as described in Johnson et al., Arthritis Rheum. 43:11560–70, 2000. The results are presented in Table 4, which provides the approximate EC50 values (μM) for prevention of SIN-1, NOC-12 and IL-1 mediated GAG release (via Example 3) and inhibition of collagen synthesis (via Johnson et al.) in chondrocytes by Compound (1). In these experiments, TC28 cells in polyHEME coated plates were pre-treated for 1 hr followed by exposure to trigger for 72 hrs in the present of Compound (1).

bovine cartilage slices [3] = assay: Bovine cartilage organ culture, IL-1-mediated GAG release; details: approximate, IL-1 10 ng/ml, 6 h pretreatment, 24 h, read-out: EC50 GAG Release, IL-1 Trigger
Method: (§1) Mature bovine knees were obtained and cartilage from the femoral condyles and patellar groove was removed in full thickness slices. (1–3 mm). Circular cores (6–7 mm in diameter) were punched out of the tissue. The cores were washed twice with media (1% FCS, 1% P/S, 1% glutamine containing DMEM high glucose) and then placed in 96 wells plates. The slices were incubated in media (as above) at 37° C. for 48 hrs to allow for recovery from the isolation process. After the recovery period, the media was removed and fresh media with Compound (1) was added to the slices for a pretreatment period of 6 hrs. Then the media was removed and fresh Compound (1)+/− IL-1 (at 10 ng/ml) was added and incubated at 37° C. for 24 hrs. The conditioned media was collected and the GAG and NO release were analyzed. Finally the slices were weighed to correct for slight variations in size or thickness. The results of this experiment are presented in Table 5, which provides the approximate EC50 values (μM) for prevention of IL-1-mediated GAG and NO release in bovine cartilage slices by Compound (1).

TC28 cells [4] = assay: Oxygen consumption / mitochondrial respiration in TC28 monolayer culture; details: 500 μM SIN-1 for 4 hr +/- 10 μM compound, FIG. 1
Method: In this experiment, TC28 cells were treated with 500 μM SIN-1 for 4 hr+/−10 μM Compound (1): State 3/4—basal respiration rate with no substrate addition; State 4—respiration rate in present of […] oligomycin; State 3U—maximal state 3 uncoupled respiration rate due to addition of the uncoupler CCCP.

bovine cartilage slices [5] = assay: Bovine cartilage organ culture, IL-1-mediated NO release; details: approximate, IL-1 10 ng/ml, 6 h pretreatment, 24 h, read-out: EC50 NO Release, IL-1 Trigger
Method: as §1

TC28 cells [6] = assay: Cell viability assay (LDH release, CytoTox 96); details: approximate, prevention of cell death, 1 h pretreatment, 24 h exposure
Method: 1×10^5 TC28 cells (DMEM/F12 media with 10% FCS, 1% glutamine, 1% P/S) were plated each well in a 96 well plate and allowed to adhere overnight. The cells were washed once with PBS and media changed to contain only 1% FCS. Compound (1) at various concentrations was added to the cells for a pretreatment of 1 hr. The media was removed and fresh compound+/− the toxic stimuli were added. The cells were then incubated for 24 hrs at 37° C. Following the incubation the media was collected and used for analysis in the CytTox 96 Nonradioactive Cytotoxicity Assay (Promega, Madison, Wis.). Briefly the LDH release from the dead cells was quantified in a 30 min enzymatic reaction that results in the conversion of a tetrazolium […] to a red formazan product. The results were then expressed as the percent of cells dead relative to the release of LDH by the control cells.
(§2) The results of the above Cell Viability and ATP Assays are presented in Table 3, which provides the approximate EC50 values (μM) for prevention of SIN-1 and NOC-12 mediated cell death and ATP depletion by Compound (1). In these assays, TC28 cells were pre-treated for one hour followed by 24-hour exposure to trigger in the presence of Compound (1).

TC28 cells [7] = assay: ATP assay (luciferase); details: approximate, prevention of ATP depletion, 1 h pretreatment, 24 h exposure
Method: 5×10^5 TC28 cells were plated in a 60 mm dish and allowed to adhere overnight. The cells were then washed with PBS and media was changed to 1% FCS containing media. Compound (1) was added for 1 hr pretreatment of the cells at 37° C. The media was removed and fresh compound+/− the toxic stimuli were added and the cells incubated for 24 hrs at 37° C. The cells were gently scraped into PBS and washed and then the pellets were snap frozen in dry ice. The cells were then extracted in 0.4 N perchloric acid and incubated on ice for 15 min. The cells were centrifuged at 14,000 rpm for 15 min and the supernatant removed. 24% (by volume) of 2.2 M KHCO3 was added to neutralize the solution and the precipitate was pelleted by centrifugation. This supernatant was mixed with the ATP assay mix from the Sigma ATP Luciferase kit and the reaction was counted for 15 sec (with an initial 5 sec delay) in triplicate. Counts were corrected for total DNA in the cell pellet (see Table 3).
as §2

SMILES	% Decrease in GAG Release, IL-1b (TC28 cells [1])	% Decrease in GAG Release, NOC-12 (TC28 cells [1])	% Decrease in GAG Release, SIN-1 (TC28 cells [1])	also measured
COc1ccc(NC(N)=NC#N)cc1Cl [(2)]	40.9%	50.1%	23.6%	–
N#CN=C(N)Nc1ccc(N2CCOCC2)cc1 [(3)]	29.1%	28.0%	21.9%	–
COc1cc(NC(N)=NC#N)cc(OC)c1OC [(4)]	1.5%	17.2%	11.3%	–
N#CN=C(N)Nc1cccc(C(F)(F)F)c1 [(5)]	30.7%	14.2%	35.0%	–
Cc1ccc(NC(N)=NC#N)c(C)c1 [(6)]	2.4%	11.0%	1.6%	–
Cc1cc(C)cc(NC(N)=NC#N)c1 [(7)]	56.6%	46.2%	42.3%	–
Cc1cc(Cl)ccc1NC(N)=NC#N [(8)]	43.8%	32.3%	55.2%	–
Cc1cc(O)ccc1NC(N)=NC#N [Compound (1)]	36.8%	27.4%	47.7%	EC50 (TC28 cells [2]; IL-1 challenge 10 ng/ml, read-out: EC50 Collagen, trigger IL-1): ~1000 nM; EC50 (TC28 cells [2]; NOC-12 challenge 25 μM, read-out: EC50 Collagen, trigger Noc12): ~1000 nM; EC50 (TC28 cells [2]; SIN-1 challenge 10 μM, read-out: EC50 Collagen, trigger Sin-1): ~1000 nM; EC50 (bovine cartilage slices [3]): ~10000 nM; SIN-1-mediated inhibition of mitochondrial respiration (TC28 cells [4]): blocked SIN-1-mediated inhibition of mitochondrial respiration; EC50 (TC28 cells [1]; IL-1 challenge 10 ng/ml, read-out: EC50 GAG Release, trigger IL-1): ~100 nM; EC50 (TC28 cells [1]; NOC-12 challenge 25 μM, read-out: EC50 GAG Release, trigger Noc12): ~100 nM; EC50 (TC28 cells [1]; SIN-1 challenge 10 μM, read-out: EC50 GAG Release, trigger Sin-1): ~100 nM; EC50 (bovine cartilage slices [5]): ~10000 nM; EC50 (TC28 cells [6]; NOC-12 challenge 250 μM, read-out: EC50 Cell Viability, trigger Noc12): ~10 nM; EC50 (TC28 cells [6]; SIN-1 challenge 100 μM, read-out: EC50 Cell Viability, trigger Sin-1): ~10 nM; EC50 (TC28 cells [7]; NOC-12 challenge 250 μM, read-out: EC50 ATP Depletion, trigger Noc12): ~100 nM; EC50 (TC28 cells [7]; SIN-1 challenge 100 μM, read-out: EC50 ATP Depletion, trigger Sin-1): ~100 nM
